Source: patent US5434136A, “Treatment of motility disorders with a GNRH analog” (priority 1992, dated 1995)

Key:
[1] = system: diseases of the autonomic nervous system; settings: cited from earlier work; for Relief of symptoms: mild to moderate symptoms; for Relief of symptoms / Effectiveness in patients with severe symptoms: experimental drugs; for Success of therapy: patients with mild to moderate disease symptoms
irritable bowel syndrome = settings: patient, three months
Method: The patient, a patient suffering from irritable bowel syndrome presented symptoms of nausea, vomiting, abdominal pain, and altered bowel habits. This patient was treated with lupron, 2.0 mg/day by subcutaneous injection, for a period of six months. […] Nafarelin is a GnRH analog available from SYNTEX, which differs from the natural GnRH peptide in a D-Nal (2)^6 substitution. […] Nafarelin therapy was discontinued, and treatment with Danazol, a 17-ethyltestosterone derivative known to antagonize GnRH receptors at the level of the pituitary, was begun, at 200 mg four times daily, P.O., for a period of three months.

Row | Structure (SMILES) | Relief of symptoms [1] | Effectiveness in patients with severe symptoms [1] | Success of therapy [1] | further results
1 | O=c1[nH]c2ccccc2n1CCCN1CCC(n2c(=O)[nH]c3cc(Cl)ccc32)CC1 [domperidone] | limited relief of mild to moderate symptoms | not been effective |  | 
2 | C#C[C@]1(O)CC[C@H]2[C@@H]3CCC4=Cc5oncc5C[C@]4(C)[C@H]3CC[C@@]21C [Danazol] |  |  |  | Therapeutic effect (irritable bowel syndrome; 200 mg four times daily, P.O.): only minimal therapeutic effect
3 | CCN(CC)CCNC(=O)c1cc(Cl)c(N)cc1OC [metoclopramide] |  |  | limited success | 
4 | CC(C)C[C@H](NC(=O)[C@@H](Cc1ccc2ccccc2c1)NC(=O)[C@H](Cc1ccc(O)cc1)NC(=O)[C@H](CO)NC(=O)[C@H](Cc1c[nH]c2ccccc12)NC(=O)[C@H](Cc1c[nH]cn1)NC(=O)[C@@H]1CCC(=O)N1)C(=O)N[C@@H](CCCNC(=N)N)C(=O)N1CCC[C@H]1C(=O)NCC(N)=O [Nafarelin] |  |  |  | Blood levels of FSH and LH (irritable bowel syndrome; 2.0 mg/day s.c.): effectively reduced their blood levels of FSH and LH; Symptoms of irritable bowel disease (irritable bowel syndrome; 2.0 mg/day s.c.): effectively reduced the symptoms of their irritable bowel disease
5 | COc1cc(N)c(Cl)cc1C(=O)NC1CCN(CCCOc2ccc(F)cc2)CC1OC (stereo not drawn) [cisapride] | limited relief of mild to moderate symptoms | not been effective |  | 
6 | CC(C[N+](C)(C)C)OC(N)=O (stereo not drawn) [bethanechol] |  |  | limited success | 
